Read-outs that look alike come from different tables or passages of the source.
Assays:
ETA receptor = target: T1, ETA receptor (Homo sapiens, UniProt P25101); conditions: read-out: affinity for the ETA receptor; cited from earlier work
T1 sequence (P25101 21-427): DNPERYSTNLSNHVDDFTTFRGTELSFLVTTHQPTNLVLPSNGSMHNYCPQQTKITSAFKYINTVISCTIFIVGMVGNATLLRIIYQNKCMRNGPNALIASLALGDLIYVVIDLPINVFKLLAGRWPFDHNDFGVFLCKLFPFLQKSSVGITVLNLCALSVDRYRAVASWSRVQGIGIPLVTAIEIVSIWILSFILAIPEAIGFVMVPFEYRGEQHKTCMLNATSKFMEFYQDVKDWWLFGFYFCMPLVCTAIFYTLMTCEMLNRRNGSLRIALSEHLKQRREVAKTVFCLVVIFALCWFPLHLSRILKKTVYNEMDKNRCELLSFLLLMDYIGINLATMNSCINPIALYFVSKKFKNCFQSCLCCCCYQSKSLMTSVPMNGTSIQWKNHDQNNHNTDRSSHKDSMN

subjects with PAH [1] = experiment: Example 1 (ARIES-2) Phase III trial, disposition, safety and tolerability; assay type: in vivo; conditions: for Subjects who died: 12 weeks
Experimental: Change from Week 0 to Week 12 was determined.

subjects with PAH [2] = conditions: for Subjects who died: 12 weeks
Experimental: All adverse effects (AEs) reported during the course of the study were reported and summaries of all AEs were prepared showing frequencies and percentages of: • (a) subjects with at least 1 AE; • (b) subjects with possibly or probably drug-related AEs; • (c) subjects with at least 1 serious AE (SAE); • (d) subjects with an AE leading to study discontinuation; and • (e) subjects who died. […]
The safety population was defined as all randomized subjects who received at least 1 dose of study drug. Subjects were considered as belonging to a treatment group according to the highest actual treatment dose received. Any subject who received 10 mg ambrisentan on any day was included in the 10 mg group for safety analyses in the entire study. Any subject who received 5 mg ambrisentan on any day and never received 10 mg ambrisentan on any day was included in the 5 mg group for safety analyses in the entire study. Otherwise, any subject who received only placebo was included in the placebo group for safety analyses in the study.

[3] = male subjects, 2.5 mg once daily
[4] = male subjects, 10 mg once daily

Question: What does the source list for `COC(c1ccccc1)(c1ccccc1)[C@H](Oc1nc(C)cc(C)n1)C(=O)O` [ambrisentan]?
Answer: Ki (ETA receptor): ~0.012 nM; subjects who died during the study or within 30 days of the last dose (subjects with PAH [1]; 2.5 mg once daily): 3.1%; Subjects who died (subjects with PAH [1]; 2.5 mg once daily): 2 (3.1) subjects (% of safety populati; subjects who died during the 12-week study (subjects with PAH [1]; 5 mg once daily): No subjects; Subjects who died (subjects with PAH [1]; 5 mg once daily): 0 (0.0) subjects (% of safety populati; Subjects who died (subjects with PAH [1]; combined 2.5 mg and 5 mg groups): 2 (1.6) subjects (% of safety populati; male fertility hormones and serial semen samples (subjects with PAH [1]; in vivo): did not suggest that ambrisentan was associated with an adverse effect on male reproductive potential; mean changes from baseline at Week 12 for serum ALT and AST (subjects with PAH [1]; in vivo): no notable mean changes; mean total bilirubin and mean alkaline phosphatase (subjects with PAH [1]; in vivo): notable decrease; subjects who developed elevated serum aminotransferase concentrations >3.0×ULN (subjects with PAH [1]; in vivo): None; change in testosterone concentration over the 12-week study (subjects with PAH [1]; [3]): -0.09 ± 4.595 nmol/L; change over baseline in FSH concentration at Week 12 (subjects with PAH [1]; [3]): +0.58 IU/liter; change in testosterone concentration over the 12-week study (subjects with PAH [1]; male subjects, 5 mg once daily): -2.61 ± 6.962 nmol/L; subjects who died during the study or within 30 days of the last dose (subjects with PAH [2]; 5 mg once daily): 1.5%; Subjects who died (subjects with PAH [2]; 5 mg once daily): 1 (1.5) subjects (% of safety populati; subjects who died during the study or within 30 days of the last dose (subjects with PAH [2]; 10 mg once daily): 1.5%; Subjects who died (subjects with PAH [2]; 10 mg once daily): 1 (1.5) subjects (% of safety populati; Subjects who died (subjects with PAH [2]; combined 5 mg and 10 mg groups): 2 (1.5) subjects (% of safety populati; effect on PT, INR or weekly warfarin-type anticoagulant dose (subjects with PAH [2]; in vivo): no effect; male fertility hormones and serial semen samples (subjects with PAH [2]; in vivo): did not suggest that ambrisentan was associated with an adverse effect on male reproductive potential; mean changes from baseline at Week 12 for serum ALT and AST (subjects with PAH [2]; in vivo): no notable mean changes; subjects who developed elevated serum aminotransferase concentrations >3×ULN (subjects with PAH [2]; in vivo): None; change from baseline in testosterone concentration at Week 12 (subjects with PAH [2]; male subjects, 5 mg once daily): -0.099 ± 3.48 nmol/L; change from baseline in testosterone concentration at Week 12 (subjects with PAH [2]; [4]): -0.099 ± 3.48 nmol/L; change over baseline in FSH concentration at Week 12 (subjects with PAH [2]; [4]): +1.83 IU/liter
